In patent publication US20240216401A1, “COMBINATION THERAPY BY USING AKR1C3-ACTIVATED COMPOUND WITH IMMUNE CHECKPOINT INHIBITOR” (OBI Pharma, Inc., priority 2021, published 2024):
Several values for one entry are separate records, joined by “and”; a condition that tells them apart may be missing. Equal entries are not always repeated.

Tested on: CTL cells (CD45^+CD8^+ T cells) in tumor-infiltrating lymphocytes
Experiment: Example 2: flow cytometry, percentage of CTL cells in TILs
Format: in vivo, Mus musculus
Protocol: Mice were sacrificed by CO2 euthanasia at the end of the study duration, and the connective tissue around tumor was resected. The tumor samples were then weighed and cut equally into three sections if the tumor weight over 400 mg. The tumor tissue was prepared for the isolation of tumor-infiltrating lymphocytes (TILs). The rest of one section was fixed in 10% formaldehyde and embedded in paraffin; the other was stored at a temperature below −70° C.
The tumor samples were dissected into smaller fragments using scalpels and then digested with a cocktail of collagenase, DNase I, and Hyaluronidase (Collagenase #C5138, DNase I #D5025, Hyaluronidase #H6254, SigmaAldrich) for at least 2 hours.
Cells were stained with the fluorescently conjugated surface antibodies and incubated for 30 minutes at 4° C., and then resuspended in staining buffer for flow cytometric analysis. Flow cytometry was done using a Navios EX Flow Cytometer (Beckman Coulter). Data were analyzed using the Kaluza Analysis Software (Beckman Coulter).

## C[C@H](OP(=O)(N1CC1)N1CC1)c1ccc([N+](=O)[O-])c(Oc2cccc(C(=O)N(C)C)c2)c1 [OBI-3424, (S)-1-(3-(3-N,N-dimethylaminocarbonyl)phenoxyl-4-mtrophenyl)-1-ethyl-N,N′-bis(ethylene)phosphoramidate]
G2: 0.3 mg/kg, group mean
  CD69^+ CTL cells (CD45^+ CD8^+CD69^+) Total %: 20.23%
  CTL cells (CD45^+CD8^+) CD45^+ Gated %: 60.54%
  CTL cells (CD45^+CD8^+) Cell count (×10^5): 55.19 ×10^5
  CTL cells (CD45^+CD8^+) Total %: 26.12%
  Granzyme B^+ CTL cells (CD45^+ CD8^+GrB+) CTL Gated %: 90.76%
  Granzyme B^+ CTL cells (CD45^+ CD8^+GrB+) Cell count (×10^5): 61.54 ×10^5
  Granzyme B^+ CTL cells (CD45^+ CD8^+GrB+) Total %: 26.31%
  IFN-γ^+ CTL cells (CD45^+ CD8^+ IFN-γ^+) CTL Gated %: 0.89%
  IFN-γ^+ CTL cells (CD45^+ CD8^+ IFN-γ^+) Cell count (×10^5): 0.47 ×10^5
  IFN-γ^+ CTL cells (CD45^+ CD8^+ IFN-γ^+) Total %: 0.20%
  PD-1^+ CTL cells (CD45^+CD8^+ PD-1^+) CTL Gated %: 75.96%
  PD-1^+ CTL cells (CD45^+CD8^+ PD-1^+) Cell count (×10^5): 42.52 ×10^5
  PD-1^+ CTL cells (CD45^+CD8^+ PD-1^+) Total %: 18.42%
G2: 0.3 mg/kg, individual mice
  CD25^+ CTL cells (CD45^+ CD8^+CD25^+) Cell count (×10^5): 1.91 ×10^5 and 3.89 ×10^5 and 7.72 ×10^5 and 0.35 ×10^5 and 3.13 ×10^5 and 0.58 ×10^5
  CD25^+ CTL cells (CD45^+CD8^+ CD25^+) CTL Gated %: 11.79% and 5.81% and 3.87% and 3.93% and 4.86% and 3.31%
  CD25^+ CTL cells (CD45^+CD8^+ CD25^+) Total %: 0.98% and 1.90% and 1.43% and 1.62% and 1.27% and 0.80%
  CD69^+ CTL cells (CD45^+ CD8^+CD69^+) CTL Gated %: 62.46% and 73.01% and 61.79% and 85.14% and 68.69% and 67.19%
  CD69^+ CTL cells (CD45^+ CD8^+CD69^+) Cell count (×10^5): 10.13 ×10^5 and 48.79 ×10^5 and 123.34 ×10^5 and 7.53 ×10^5 and 44.17 ×10^5 and 11.85 ×10^5
  CD69^+ CTL cells (CD45^+ CD8^+CD69^+) Total %: 5.21% and 23.86% and 22.84% and 35.19% and 17.92% and 16.34%
  CTL cells (CD45^+CD8^+) CD45^+ Gated %: 43.92% and 72.25% and 73.64% and 66.97% and 60.34% and 46.12%
  CTL cells (CD45^+CD8^+) Cell count (×10^5): 15.97 ×10^5 and 54.79 ×10^5 and 171.72 ×10^5 and 9.75 ×10^5 and 66.26 ×10^5 and 12.67 ×10^5
  CTL cells (CD45^+CD8^+) Total %: 8.21% and 26.79% and 31.80% and 45.54% and 26.88% and 17.47%
  Granzyme B^+ CTL cells (CD45^+ CD8^+GrB+) CTL Gated %: 66.16% and 97.44% and 95.50% and 85.88% and 99.84% and 99.74%
  Granzyme B^+ CTL cells (CD45^+ CD8^+GrB+) Cell count (×10^5): 11.61 ×10^5 and 69.08 ×10^5 and 196.18 ×10^5 and 6.59 ×10^5 and 69.09 ×10^5 and 16.66 ×10^5
  Granzyme B^+ CTL cells (CD45^+ CD8^+GrB+) Total %: 5.97% and 33.78% and 36.33% and 30.78% and 28.03% and 22.98%
  IFN-γ^+ CTL cells (CD45^+ CD8^+ IFN-γ^+) CTL Gated %: 2.04% and 0.66% and 0.54% and 0.36% and 1.10% and 0.64%
  IFN-γ^+ CTL cells (CD45^+ CD8^+ IFN-γ^+) Cell count (×10^5): 0.35 ×10^5 and 0.47 ×10^5 and 1.08 ×10^5 and 0.03 ×10^5 and 0.76 ×10^5 and 0.11 ×10^5
  IFN-γ^+ CTL cells (CD45^+ CD8^+ IFN-γ^+) Total %: 0.18% and 0.23% and 0.20% and 0.13% and 0.31% and 0.15%
  PD-1^+ CTL cells (CD45^+CD8^+ PD-1^+) CTL Gated %: 95.86% and 68.60% and 72.47% and 49.67% and 96.18% and 73.00%
  PD-1^+ CTL cells (CD45^+CD8^+ PD-1^+) Cell count (×10^5): 15.31 ×10^5 and 37.59 ×10^5 and 124.42 ×10^5 and 4.84 ×10^5 and 63.74 ×10^5 and 9.24 ×10^5
  PD-1^+ CTL cells (CD45^+CD8^+ PD-1^+) Total %: 7.87% and 18.38% and 23.04% and 22.62% and 25.86% and 12.75%
G3: 1 mg/kg, group mean
  CD25^+ CTL cells (CD45^+ CD8^+CD25^+) Cell count (×10^5): 1.33 ×10^5
  CD25^+ CTL cells (CD45^+CD8^+ CD25^+) CTL Gated %: 5.25%
  CD25^+ CTL cells (CD45^+CD8^+ CD25^+) Total %: 1.71%
  CD69^+ CTL cells (CD45^+ CD8^+CD69^+) CTL Gated %: 71.92%
  CD69^+ CTL cells (CD45^+ CD8^+CD69^+) Cell count (×10^5): 18.65 ×10^5
  CD69^+ CTL cells (CD45^+ CD8^+CD69^+) Total %: 25.02%
  CTL cells (CD45^+CD8^+) CD45^+ Gated %: 55.81%
  CTL cells (CD45^+CD8^+) Cell count (×10^5): 25.42 ×10^5
  CTL cells (CD45^+CD8^+) Total %: 33.50%
  Granzyme B^+ CTL cells (CD45^+ CD8^+GrB+) CTL Gated %: 88.17%
  Granzyme B^+ CTL cells (CD45^+ CD8^+GrB+) Cell count (×10^5): 23.13 ×10^5
  Granzyme B^+ CTL cells (CD45^+ CD8^+GrB+) Total %: 30.40%
  IFN-γ^+ CTL cells (CD45^+ CD8^+ IFN-γ^+) CTL Gated %: 0.63%
  IFN-γ^+ CTL cells (CD45^+ CD8^+ IFN-γ^+) Cell count (×10^5): 0.15 ×10^5
  IFN-γ^+ CTL cells (CD45^+ CD8^+ IFN-γ^+) Total %: 0.21%
  PD-1^+ CTL cells (CD45^+CD8^+ PD-1^+) CTL Gated %: 75.93%
  PD-1^+ CTL cells (CD45^+CD8^+ PD-1^+) Cell count (×10^5): 19.17 ×10^5
  PD-1^+ CTL cells (CD45^+CD8^+ PD-1^+) Total %: 24.78%
G3: 1 mg/kg, individual mice
  CD25^+ CTL cells (CD45^+ CD8^+CD25^+) Cell count (×10^5): 0.43 ×10^5 and 1.29 ×10^5 and 0.89 ×10^5 and 1.55 ×10^5 and 1.91 ×10^5 and 1.90 ×10^5
  CD25^+ CTL cells (CD45^+CD8^+ CD25^+) CTL Gated %: 3.38% and 2.85% and 4.07% and 7.29% and 6.05% and 7.84%
  CD25^+ CTL cells (CD45^+CD8^+ CD25^+) Total %: 1.49% and 1.02% and 1.26% and 1.57% and 2.57% and 2.34%
  CD69^+ CTL cells (CD45^+ CD8^+CD69^+) CTL Gated %: 80.80% and 70.50% and 83.69% and 59.32% and 76.33% and 60.89%
  CD69^+ CTL cells (CD45^+ CD8^+CD69^+) Cell count (×10^5): 10.34 ×10^5 and 31.84 ×10^5 and 18.33 ×10^5 and 12.61 ×10^5 and 24.09 ×10^5 and 14.69 ×10^5
  CD69^+ CTL cells (CD45^+ CD8^+CD69^+) Total %: 35.67% and 25.23% and 25.96% and 12.76% and 32.38% and 18.14%
  CTL cells (CD45^+CD8^+) CD45^+ Gated %: 66.02% and 53.39% and 62.97% and 38.03% and 65.33% and 49.11%
  CTL cells (CD45^+CD8^+) Cell count (×10^5): 12.68 ×10^5 and 40.30 ×10^5 and 21.83 ×10^5 and 22.61 ×10^5 and 32.02 ×10^5 and 23.10 ×10^5
  CTL cells (CD45^+CD8^+) Total %: 31.93% and 30.92% and 22.88% and 43.04% and 28.52%
  Granzyme B^+ CTL cells (CD45^+ CD8^+GrB+) CTL Gated %: 90.46% and 99.18% and 89.16% and 96.01% and 95.94% and 58.25%
  Granzyme B^+ CTL cells (CD45^+ CD8^+GrB+) Cell count (×10^5): 11.76 ×10^5 and 39.25 ×10^5 and 20.44 ×10^5 and 21.59 ×10^5 and 31.75 ×10^5 and 14.00 ×10^5
  Granzyme B^+ CTL cells (CD45^+ CD8^+GrB+) Total %: 40.55% and 31.10% and 28.95% and 21.85% and 17.29%
  IFN-γ^+ CTL cells (CD45^+ CD8^+ IFN-γ^+) CTL Gated %: 0.87% and 0.63% (2×) and 0.85% and 0.20% and 0.61%
  IFN-γ^+ CTL cells (CD45^+ CD8^+ IFN-γ^+) Cell count (×10^5): 0.11 ×10^5 and 0.25 ×10^5 and 0.20 ×10^5 and 0.1 ×10^5 and 0.07 ×10^5 and 0.15 ×10^5
  IFN-γ^+ CTL cells (CD45^+ CD8^+ IFN-γ^+) Total %: 0.39% and 0.20% and 0.28% and 0.14% and 0.09% and 0.18%
  PD-1^+ CTL cells (CD45^+CD8^+ PD-1^+) CTL Gated %: 58.64% and 62.98% and 80.96% and 86.30% and 72.97% and 93.75%
  PD-1^+ CTL cells (CD45^+CD8^+ PD-1^+) Cell count (×10^5): 7.44 ×10^5 and 25.38 ×10^5 and 17.68 ×10^5 and 19.51 ×10^5 and 23.37 ×10^5 and 21.66 ×10^5
  PD-1^+ CTL cells (CD45^+CD8^+ PD-1^+) Total %: 25.64% and 20.11% and 25.04% and 19.75% and 31.41% and 26.74%
